Columns and labels:
[1] = test system: RPE cells; test: Cell spreading area and circularity by microscopy; format: cell-based
Procedure: Cells were washed as before, treated with Phalloidin-iFluor 488 Reagent (abcam, ab176753) for 1 hour in 1-5% BSA in PBS, followed by Hoechst 33342 (Thermo Fisher Scientific, H3570) for 5 minutes. Mounting medium (Fisher Scientific, P10144) and cover slips were applied onto dried cells. Individually discernible cells were imaged on an Olympus Fluoview 10i. Using ImageJ, the phalloidin channel was thresholded and area and circularity values were measured and integrated into swarmplots using Python's seaborn library.

[2] = test system: RPE cells; test: Analysis of microtubule features by immunofluorescence; format: cell-based
Procedure: Analysis of microtubule features by immunofluorescence: Because Y-27632 diminishes FQI1-induced cell compaction (FIGS. 10C and 10D) without affecting microtubule levels (FIGS. 9A and 9B), cells were pretreated with Y-27632 in order to maintain overall cellular shape, facilitating capture of structural or positional impact of FQI1 on microtubules. In addition, only cells with cell spreading areas larger than 1000 μm^2 were considered. Cells were seeded overnight in high n-dishes, treated as indicated in the figure legends, fixed with formaldehyde as described above, blocked in 5% BSA in PBS and stained overnight at 4° C. with anti-γ-tubulin (1:500, Abcam, ab11316) and anti-α-tubulin (1:500, Fisher Scientific, 62204). Samples were then incubated in goat anti-rabbit Cy5 (1:1000, Invitrogen, A10523), goat anti-mouse Alexa Fluor 546 (1:1000, Thermo Fisher Scientific, A11003), and Phalloidin-iFluor 488 Reagent. Hoechst 33342 and mounting medium were applied, before acquiring Z stack images at 60× magnification on an Olympus Fluoview 10i microscope.
Using ImageJ, binary Z projections of Phalloidin and Hoechst channel stacks were merged with Z projections with average intensity of the α-tubulin channels. The Phalloidin channel was used as the region of interest for measurement of “integrated density” of the total α-tubulin intensity, which was plotted into swarmplots.
To assess distribution of visible microtubule ends, the Hoechst, γ-tubulin, and α-tubulin stacks were converted into Z projections with maximum intensity. The Hoechst and γ-tubulin Z projections were thresholded and all channels were merged. A line was generated between the γ-tubulin signal and the center of the nucleus to identify the axis of cell movement; a line perpendicular to the first line and running through the center point of the nucleus divided the cell into posterior and anterior portions. Visible microtubule ends were counted using the Cell Counter plugin, excluding unattached microtubule fragments.

[3] = test system: RhoA/ROCK pathway in FH-B cells; test: Phospho-MLC2 immunoblot (RhoA/ROCK pathway); format: cell-based, human; conditions: 4 μM FQI1, 10 minutes
Procedure: For analysis of phosphorylated MLC2, FH-B cells were treated as indicated in the figure legend, washed with PBS and incubated for 5 minutes in lysis buffer (50 mM Tris-HCl pH 8.0, 50 mM NaF, 5 mM MgCl2, 150 mM NaCl, 1% Triton X-100) supplemented with Tricine Sample Buffer (Bio-rad, 1610739), protease inhibitor cocktail (1:200), phosphatase inhibitor cocktail (1:100), and 1% ([…]. Lysates were incubated at 100° C. for 15 minutes and centrifuged at 21,000×g for 10 minutes prior to SDS-PAGE.
Gel electrophoresis and immunoblotting: Microtubule sedimentation fractions and MLC2 analysis samples were separated by electrophoresis through tris-glycine and tricine polyacrylamide gels, respectively, which were transferred to PVDF membranes. Membranes with microtubule sedimentation fractions and MLC2 analysis samples were blocked in 5% milk in TBST and in 5% BSA in TBST, respectively. After overnight incubation with primary antibody at 4° C., the membranes were washed and incubated with secondary antibody for 1 hour at room temperature. Primary antibodies included anti-α-tubulin (1:2,000, Thermo Fisher Scientific, PA529444), anti-acetylated tubulin (1:1,000, Sigma-Aldrich, T7451), anti-phospho MYL9 (1:200, Thermo Fisher Scientific, PA517727), and anti-β-actin (1:5,000, Sigma-Aldrich, A1978). […] Band intensities were quantified from scanned films by densitometry using ImageJ.

[4] = test system: RPE cells; test: Cell cycle analysis by flow cytometry at end of wound healing; format: cell-based; conditions: 4 μM FQI1, 12-hour time-point
Procedure: Cell cycle analysis by flow cytometry: After trypsinization, subsequent steps prior to staining were performed at 4° C. Cells in PBS were transferred dropwise into ethanol (final concentration of 70%) for overnight incubation. Fixed cells were washed with PBS and then incubated in 50 μg/ml propidium iodide and 10 μg/ml RNase A in PBS for 45 minutes at room temperature. After passage through a cell strainer, cell fluorescence was measured using a Becton Dickinson FACSCalibur. Ten thousand events were counted per sample. Histogram plots were generated using FlowJo.
All the samples, including a “0 hour” synchronized and an asynchronous sample, were harvested and prepared for flow cytometry, as described above. The proportion of cells in their respective cell cycle phases was determined by applying the Dean-Jett-Fox model in the FlowJo Cell Cycle analysis tool.

[5] = test system: Huh7 cells; test: Growth inhibition curves in Huh7 cells; format: cell-based; conditions: Homo sapiens, Huh-7

## CCOc1ccccc1C1CC(=O)Nc2cc3c(cc21)OCO3 (centres unmarked) [FQI1, 8-(2-ethoxyphenyl)-7,8-dihydro-[1,3]dioxolo[4,5-g]quinolin-6(5H)-one]
[1]; 4 μM FQI1, 1 hour
  cell spreading area: did not respond to FQI1 with significant change in cell spreading area
[1]; 4 μM FQI1 or 1 μM nocodazole, 1 hour
  circularity: significantly more circular in shape
[2]; 4 μM FQI1
  front-rear pattern of visible microtubule ends: shifted to a more anterior distribution
[2]; 4 μM FQI1, 10 minutes, Y-27632 pretreated
  overall α-tubulin intensity: significant decrease in overall α-tubulin intensity
[2]; 4 μM FQI1, 10 minutes, vs vehicle
  increase in the number of individually discernible microtubule ends: 2.5 fold
[3]
  phosphorylation of MLC2: elevated
[4]
  cells with a 4n DNA content: ~30%

## CCOc1cc(N(C)C)ccc1-c1cc(=O)[nH]c2cc3c(cc12)OCO3 [FQI2-34, 8-(4-(dimethylamino)-2-ethoxyphenyl)-[1,3]dioxolo[4,5-g]quinolin-6(5H)-one]
[5]
  GI50: 22.2 nM

— US11458132B2, “Quinolin-2(1H)-one inhibitors of Late SV40 Factor” (TRUSTEES OF BOSTON UNIVERSITY, priority 2020, dated 2022)
